These results are taken from patent US20240158445A1, “CYCLIC CELL-PENETRATING PEPTIDES WITH THREE OR MORE HYDROPHOBIC RESIDUES” (Ohio State Innovation Foundation, priority 2021, published 2024).

Where a SMILES comes first, the peptide text is derived from it. Side-chain parts run from the residue outwards. [ ]: non-standard residue; d: D form. The star is where a group is joined. X2 = NC(=O)[C@H](CCCCNC(=O)c1ccc(-c2c3ccc4cc(O)ccc4c3oc3c2ccc2cc(=O)ccc23)c(C(=O)O)c1)N*; Lys(5-FITC)NH2 = NC(=O)[C@H](CCCCNC(=S)Nc1ccc2c(c1)C(=O)OC21c2ccc(O)cc2Oc2cc(O)ccc21)N*; X1 = CN(C)c1ccc2c(c1)Oc1cc(N(C)C)ccc1C21OC(=O)c2cc(C(=O)NCCCC[C@H](N*)C(N)=O)ccc21; 2Nal = N[C@@H](Cc1ccc2ccccc2c1)C(=O)O; Bta = N[C@@H](Cc1csc2ccccc12)C(=O)O; AEEA = NCCOCCOCC(=O)O

One assay deals with Keap1-Nrf2 interaction. Description: Luciferase reporter assay in ARE reporter-HepG2 cells. As to conditions: up to 5 mM concentration. The assay is classed as cell-based. As to the method: General Methods—Luciferase Reporter Assay. ARE reporter-HepG2 cells (1000 cells per well) were seeded in 100 μL of assay medium (MEM, 0% FBS, and 1% penicillin-streptomycin sulfate) in an opaque 96-well plate and cultured overnight. […] After incubation, 100 μL of One-Step luciferase assay reagent was added to each well and after 15 min of shaking, the luminescence was measured using a Tecan Infinite M1000 Pro microplate reader. P values (<0.05) were estimated using Student's t test.
On the technique in general: In a reporter assay the amount or activity of a reporter protein is the signal.

In the next assay the test system is HeLa cells. Description: Live-cell confocal microscopy. The assay is classed as cell-based, human. The note with it: 2 h, 1% FBS. As to the method:
General Methods—Confocal Microscopy. HeLa cells were seeded in a 35-mm glass-bottomed microwell dish with 4 compartments (Greiner) at a density of 5×10^4 cells/mL (300 μL in each compartment) and cultured overnight. Next day, the cells were gently washed with DPBS twice, and treated for 2 h with FITC- or TMR-labelled peptides (5 μM, 1 μM or 0.2 μM as indicated) in phenol-red free DMEM containing 1% […]. After removal of the medium, the cells were gently washed with DPBS twice and imaged on a Nikon A1R live-cell confocal laser scanning (ECLIPSE Ti-E automated, inverted) microscope equipped with a 100× oil objective (1.45 N.A.) and a heated (37° C.) chamber supplied with 5% CO2. For the red channel (TMR), the laser line with λEx 561 nm was set at 0.6% laser power (for 5 μM peptide treatment), 1.6% laser power (for 1 μM peptide treatment) or 10.8% laser power (for 0.2 μM peptide treatment). For the green channel (FITC), the laser line with λEx 487 nm was set at 0.6% laser power. The data were analyzed using NIS-Elements AR.

Another assay has as its target proteins in FBS. Nature of the assay: Fluorescence polarization analysis of CPP binding to FBS. Further details: species or system bovine. As to conditions: 100 nM labeled peptide, FBS in DPBS, 1 h, FP; read-out: apparent KD to proteins in FBS. The method, then:
General Methods—Fluorescence Polarization (FP) Analysis of CPP Binding to FBS. Fluorescein-labeled peptide (100 nM) was incubated with serial dilutions of FBS (0-100 μM) in DPBS for 1 h. The solutions were transferred to a 384-black microplate (Greiner), and FP values were measured on a Tecan Infinite M1000 Pro plate reader, with excitation and emission wavelengths at 470 and 535 nm, respectively, for FITC, 530 and 580 nm for TMR, and 595 and 660 nm for NF. The titration curves were fitted using GraphPad Prism to the following equation: […]
where FP is the measured polarization, Amin is the minimum FP value, Amax is the maximum FP value, Qb is the quantum yield of the bound fluorophore, Qf is the quantum yield of the free fluorophore, L is the ligand concentration, KD is the dissociation constant, and x is the protein concentration. Data presented are the mean±SD of three independent experiments.
(In general: Fluorescence polarisation rises when a labelled molecule tumbles more slowly, as on binding a larger partner.)

Turning to `CC(C)C[C@@H]1NC(=O)[C@H](Cc2ccccc2)NC(=O)[C@H](CCC(=O)O)NC(=O)CNC(=O)[C@H]([C@@H](C)O)NC(=O)[C@H](CCC(=O)O)NC(=O)[C@@H]2CCCN2C(=O)[C@H](CC(=O)O)NC(=O)[C@H](CC(C)C)NC(=O)[C@H](CCC(N)=O)NC(=O)CNC1=O` [Peptide P1], the “increase in luciferase activity” value with Keap1-Nrf2 interaction was “did not result in significant increase in luciferase activity”.

Regarding `CN(C)c1ccc2c(c1)Oc1cc(N(C)C)ccc1C21OC(=O)c2cc(C(=O)NCCCC[C@H](NC(=O)COCCOCCNC(=O)CC[C@@H]3NC(=O)[C@@H](CCCNC(=N)N)NC(=O)[C@H](CCCNC(=N)N)NC(=O)[C@@H](CCCNC(=N)N)NC(=O)[C@H](CCCNC(=N)N)NC(=O)[C@H](Cc4csc5ccccc45)NC(=O)[C@@H](Cc4ccccc4)NC(=O)[C@H](Cc4ccccc4)NC3=O)C(N)=O)ccc21` [CPP12-2^TMR] (cyclo([Bta]R[dR]R[dR]E([AEEA-X1])F[dF])), the “intracellular distribution of TMR fluorescence” value with HeLa cells (0.2 and 1.0 μM) is reported as “predominantly punctate fluorescence in the cytoplasmic region”. In addition, the Kd at proteins in FBS was found to be 68 ± 9 µM.

Consider `N=C(N)NCCC[C@@H]1NC(=O)[C@H](Cc2csc3ccccc23)NC(=O)[C@@H](Cc2ccccc2)NC(=O)[C@H](Cc2ccccc2)NC(=O)[C@H](CCC(=O)NCCOCCOCC(=O)N[C@@H](CCCCNC(=O)c2ccc(-c3c4ccc5cc(O)ccc5c4oc4c3ccc3cc(=O)ccc34)c(C(=O)O)c2)C(N)=O)NC(=O)[C@@H](CCCNC(=N)N)NC(=O)[C@H](CCCNC(=N)N)NC(=O)[C@@H](CCCNC(=N)N)NC1=O` [CPP12-2, Phe-phe-(Bta)-Arg-arg-Arg-arg-Gln] (cyclo([Bta]R[dR]R[dR]E([AEEA-X2])F[dF])), for which the Kd on proteins in FBS is 1.2 ± 0.4 µM. With `N=C(N)NCCC[C@@H]1NC(=O)[C@H](Cc2ccc3ccccc3c2)NC(=O)[C@@H](Cc2ccccc2)NC(=O)[C@H](Cc2ccccc2)NC(=O)[C@H](CCC(=O)NCCOCCOCC(=O)N[C@@H](CCCCNC(=O)c2ccc(-c3c4ccc5cc(O)ccc5c4oc4c3ccc3cc(=O)ccc34)c(C(=O)O)c2)C(N)=O)NC(=O)[C@@H](CCCNC(=N)N)NC(=O)[C@H](CCCNC(=N)N)NC(=O)[C@@H](CCCNC(=N)N)NC1=O` [CPP12, cycl(Phe-D-Phe-Nal-Arg-D-Arg-Arg-D-Arg-Gln)] (cyclo([2Nal]R[dR]R[dR]E([AEEA-X2])F[dF])), the Kd at proteins in FBS amounted to 1.3 ± 0.3 µM. In the case of `N=C(N)NCCC[C@@H]1NC(=O)[C@H](Cc2csc3ccccc23)NC(=O)[C@@H](Cc2ccccc2)NC(=O)[C@H](Cc2ccccc2)NC(=O)[C@H](CCC(=O)NCCOCCOCC(=O)N[C@@H](CCCCNC(=S)Nc2ccc3c(c2)C(=O)OC32c3ccc(O)cc3Oc3cc(O)ccc32)C(N)=O)NC(=O)[C@@H](CCCNC(=N)N)NC(=O)[C@H](CCCNC(=N)N)NC(=O)[C@@H](CCCNC(=N)N)NC1=O` [CPP12-2^FITC] (cyclo(F[dF][Bta]R[dR]R[dR]E([AEEA-Lys(5-FITC)NH2]))), the Kd on proteins in FBS was determined as 30 ± 5 µM. As for `N=C(N)NCCC[C@@H]1NC(=O)[C@H](Cc2ccc3ccccc3c2)NC(=O)[C@@H](Cc2ccccc2)NC(=O)[C@H](Cc2ccccc2)NC(=O)[C@H](CCC(=O)NCCOCCOCC(=O)N[C@@H](CCCCNC(=S)Nc2ccc3c(c2)C(=O)OC32c3ccc(O)cc3Oc3cc(O)ccc32)C(N)=O)NC(=O)[C@@H](CCCNC(=N)N)NC(=O)[C@H](CCCNC(=N)N)NC(=O)[C@@H](CCCNC(=N)N)NC1=O` [CPP12^FITC] (cyclo(F[dF][2Nal]R[dR]R[dR]E([AEEA-Lys(5-FITC)NH2]))), the Kd at proteins in FBS amounted to 29 ± 3 µM. Take `CN(C)c1ccc2c(c1)Oc1cc(N(C)C)ccc1C21OC(=O)c2cc(C(=O)NCCCC[C@H](NC(=O)COCCOCCNC(=O)CC[C@@H]3NC(=O)[C@@H](CCCNC(=N)N)NC(=O)[C@H](CCCNC(=N)N)NC(=O)[C@@H](CCCNC(=N)N)NC(=O)[C@H](CCCNC(=N)N)NC(=O)[C@H](Cc4ccc5ccccc5c4)NC(=O)[C@@H](Cc4ccccc4)NC(=O)[C@H](Cc4ccccc4)NC3=O)C(N)=O)ccc21` [CPP12^TMR] (cyclo([2Nal]R[dR]R[dR]E([AEEA-X1])F[dF])): the “intracellular distribution of TMR fluorescence” value with HeLa cells (5 μM) is given as “very similar intracellular distribution”; in the assay on HeLa cells (0.2 and 1.0 μM) it was “predominantly punctate fluorescence in the cytoplasmic region”. Also, the Kd on proteins in FBS worked out at 27 ± 9 µM.
